What was measured:
Assay in all cases: relative viability (nuclei count vs DMSO), 5 days (fraction); higher = more cells survive
QS11 + Bortezomib = compound: C1CC2=C(C1)C=C(C=C2)OC3=NC(=C4C(=N3)N(C=N4)CC5=CC=C(C=C5)C6=CC=CC=C6)N[C@@H](CC7=CC=CC=C7)CO [QS11] + CC(C)C[C@H](NC(=O)[C@H](Cc1ccccc1)NC(=O)c1cnccn1)B(O)O [Bortezomib] (partner 0.002 µM)
In short: (§1)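 Cells from lung cancer lines were seeded into 1536-well plates and, one day later, dosed by pin tool. Treatments were either a single drug or a fixed dose of an anchor drug with five library-drug doses (not always all listed) in √10 steps. After 5 days, nuclei were stained in a one-step fixation (final 0.05% Triton X-100, 1% formaldehyde, 1 ug/ml Hoechst) and counted on 4× images, and relative viability is the treated-to-vehicle nuclei ratio, as the median of duplicate plates.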

AZ628 + Dasatinib = compound: CC1=C(C=C(C=C1)NC(=O)C2=CC(=CC=C2)C(C)(C)C#N)NC3=CC4=C(C=C3)N=CN(C4=O)C [AZ628] + Cc1nc(Nc2ncc(C(=O)Nc3c(C)cccc3Cl)s2)cc(N2CCN(CCO)CC2)n1 [Dasatinib] (partner 0.075 µM)
In short: as §1

AZ628 + Bortezomib = compound: CC1=C(C=C(C=C1)NC(=O)C2=CC(=CC=C2)C(C)(C)C#N)NC3=CC4=C(C=C3)N=CN(C4=O)C [AZ628] + CC(C)C[C@H](NC(=O)[C@H](Cc1ccccc1)NC(=O)c1cnccn1)B(O)O [Bortezomib] (partner 0.002 µM)
In short: as §1

AZ628 + Crizotinib = compound: CC1=C(C=C(C=C1)NC(=O)C2=CC(=CC=C2)C(C)(C)C#N)NC3=CC4=C(C=C3)N=CN(C4=O)C [AZ628] + C[C@@H](Oc1cc(-c2cnn(C3CCNCC3)c2)cnc1N)c1c(Cl)ccc(F)c1Cl [Crizotinib] (partner 1 µM)
In short: as §1

| Cell Line | relative viability (QS11 + Bortezomib; first compound 0.08 µM) | relative viability (QS11 + Bortezomib; first compound 0.253 µM) | relative viability (QS11 + Bortezomib; first compound 0.8 µM) | relative viability (QS11 + Bortezomib; first compound 2.53 µM) | relative viability (QS11 + Bortezomib; first compound 8 µM) | relative viability (AZ628 + Dasatinib; first compound 0.08 µM) | relative viability (AZ628 + Dasatinib; first compound 0.253 µM) | relative viability (AZ628 + Dasatinib; first compound 0.8 µM) | relative viability (AZ628 + Dasatinib; first compound 2.53 µM) | relative viability (AZ628 + Dasatinib; first compound 8 µM) | relative viability (AZ628 + Bortezomib; first compound 0.08 µM) | relative viability (AZ628 + Bortezomib; first compound 0.253 µM) | relative viability (AZ628 + Bortezomib; first compound 0.8 µM) | relative viability (AZ628 + Bortezomib; first compound 2.53 µM) | relative viability (AZ628 + Bortezomib; first compound 8 µM) | relative viability (AZ628 + Crizotinib; first compound 0.08 µM) | relative viability (AZ628 + Crizotinib; first compound 0.253 µM) | relative viability (AZ628 + Crizotinib; first compound 0.8 µM) | relative viability (AZ628 + Crizotinib; first compound 2.53 µM) | relative viability (AZ628 + Crizotinib; first compound 8 µM) |
| --- | --- | --- | --- | --- | --- | --- | --- | --- | --- | --- | --- | --- | --- | --- | --- | --- | --- | --- | --- | --- |
| LOU-NH91 | 0.494 | 0.491 | 0.417 | 0.488 | 0.437 | 0.553 | 0.484 | 0.541 | 0.497 | 0.471 | 0.481 | 0.478 | 0.485 | 0.466 | 0.453 | 0.721 | 0.755 | 0.755 | 0.731 | 0.606 |
| RERF-LC-KJ | 1.05 | 1.1 | 0.956 | 0.932 | 0.941 | 0.737 | 0.72 | 0.752 | 0.75 | 0.64 | 1.22 | 1.14 | 1.29 | 1.12 | 1.03 | 0.779 | 0.817 | 0.868 | 0.85 | 0.726 |
| NCI-H2085 | 0.952 | 1.03 | 1.16 | 1.06 | 1 | 0.255 | 0.274 | 0.252 | 0.239 | 0.237 | 1.2 | 1.02 | 1.19 | 1.07 | 1.06 | 0.84 | 0.928 | 0.912 | 0.911 | 0.69 |
| HCC-366 | 1.28 | 0.688 | – | 0.808 | 0.318 | 0.663 | 0.653 | 0.492 | 0.55 | 0.406 | 1.04 | 0.894 | 0.957 | 0.999 | 0.681 | 0.519 | 0.627 | 0.308 | 0.427 | 0.236 |
| NCI-H596 | – | 0.807 | 1.15 | 0.869 | 1.06 | 0.693 | 0.618 | 0.573 | 0.565 | 0.471 | 1 | 1.03 | 1.09 | 1.09 | 1.27 | 0.903 | 1.18 | 1.08 | 1.04 | 1.16 |
| NCI-H2126 | 1.1 | 1.07 | 0.882 | 1.22 | 0.904 | 0.584 | 0.565 | 0.492 | 0.491 | 0.415 | 1.16 | 1 | 1.13 | 1.17 | 1.18 | 1.04 | 0.98 | 1.06 | 1.07 | 1.03 |
| EMC-BAC-2 | 1.06 | 1.05 | 0.941 | 0.985 | 0.677 | 0.303 | 0.321 | 0.383 | 0.373 | 0.412 | 1.11 | 0.963 | 1 | 0.991 | 1.08 | 0.809 | 0.759 | 0.76 | 0.795 | 0.874 |
| H3255 | 0.813 | 0.782 | – | 0.761 | 0.746 | 0.311 | 0.362 | 0.319 | 0.351 | 0.252 | 0.837 | 0.621 | 0.811 | 0.81 | 0.66 | 0.926 | 0.921 | 0.949 | 0.866 | 0.704 |
| NCI-H838 | 0.942 | 0.641 | 0.684 | 0.851 | 0.923 | 0.287 | 0.291 | 0.297 | 0.274 | 0.284 | 0.949 | 0.772 | 0.733 | 0.838 | 0.942 | 0.84 | 0.842 | 0.719 | 0.747 | 0.655 |
| NCI-H2009 | 0.999 | 0.898 | 0.739 | 0.802 | 0.755 | 0.202 | 0.258 | 0.182 | 0.173 | 0.184 | 0.939 | 0.881 | 0.65 | 0.689 | 0.295 | 0.848 | 0.722 | 0.524 | 0.703 | 0.292 |
| HCC-15 | 1.06 | 1.16 | – | 1.03 | 0.982 | 0.642 | 0.496 | 0.389 | 0.404 | 0.23 | 1.06 | 0.951 | 0.873 | 0.866 | 0.661 | 0.81 | 0.793 | 0.767 | 0.77 | 0.446 |
| CAL-12T | 0.893 | 0.865 | 0.809 | 1.07 | 1.03 | 0.385 | 0.336 | 0.255 | 0.271 | 0.278 | 0.948 | – | 0.747 | 0.835 | 0.779 | 0.871 | – | 0.565 | 0.622 | 0.361 |
| COR-L 105 | 0.78 | 0.814 | 0.772 | 0.717 | 0.519 | 0.358 | 0.419 | 0.285 | 0.312 | 0.244 | 1.01 | 0.978 | 0.885 | 0.867 | 0.544 | 1.07 | 0.728 | 0.744 | 0.757 | 0.438 |
| BEN | 0.635 | 1.01 | 1.07 | 0.916 | 1.07 | 0.348 | 0.304 | 0.301 | 0.508 | 0.309 | 0.882 | 0.653 | 0.666 | 0.813 | 0.616 | 0.98 | 0.881 | 0.698 | 0.966 | 0.825 |
| NCI-H520 | – | 0.593 | 0.541 | 0.479 | 0.471 | 0.254 | 0.189 | 0.325 | 0.18 | 0.215 | 0.732 | 0.476 | 0.502 | 0.591 | 0.571 | 0.707 | 0.788 | 0.601 | 0.833 | 0.576 |
| ChaGo-K-1 | – | 1.01 | 1.17 | 1.25 | 1.09 | 0.585 | 0.501 | 0.287 | 0.547 | 0.564 | 0.987 | – | 0.85 | 1.11 | 1.15 | 1.18 | – | 1.15 | 1.11 | 1.16 |
